Patent US5780505A, “Substituted N-arylmethylamino derivatives of cyclobutene-3, 4-diones” (American Home Products Corporation, priority 1997, dated 1998)

Tested on: Isolated Rat Bladder Strips
Experiment: Inhibition of contractions in isolated rat bladder strips (KCl-enhanced contractile activity; smooth muscle relaxation)
Assay type: cell-based, Sprague-Dawley rats
Conditions: for IC50 / percent contraction at 30 µM: 0.5 h; for IC50: isolated rat bladder strips, 15 mM additional KCl, 30 minute challenge, read-out: IC50 (50% inhibition of pre-drug contractile activity); for inhibition at 30 µM / percent contraction at 30 µM: Rattus norvegicus; for inhibition at 30 µM: read-out: Percent inhibition at 30 μM (I); for percent contraction at 30 µM: read-out: Percent contraction at 30 μM (C)
From the text: The smooth muscle relaxing activity of the compounds of this invention was established in accordance with standard pharmaceutically accepted test procedures with representative compounds as follows:
Sprague-Dawley rats (150-200 g) are rendered unconscious by CO2 asphyxiation and then euthanized by cervical dislocation. The bladder is removed into warm (37 deg.C) physiological salt solution (PSS) of the following composition (mM): NaCl, 118.4; KCl, 4.7; CaCl2, 2.5; MgSO4, 4.7; H2 O, 1,2; NaHCO3, 24.9; KH2 PO4, 1,2; glucose, 11.1; EDTA, 0.023; gassed with […]; pH 7.4. The bladder is opened and then dut into strips 1-2 mm in width and 7-10 mm in length. The strips are subsequently suspended in a 10 mL tissue bath under an initial resting tension of 1.5 g. The strips are held in place by two surgical clips one of which is attached to a fixed hook while the other is attached to an isometric force transducer. […] The carbachol is then washed out and the tissue allowed to relax to its resting level of activity. Following a further 30 min period of recovery an additional 15 mM KCl are introduced into the tissue bath. This increase in KCl concentration results in a large increase in the amplitude of spontaneous contractions (and initiation of contractions in previously quiescent strips) superimposed upon a small increase in basal tone. Following stabilization of this enhanced level of contractile activity, incremental increases in the concentration of test compound or vehicle are introduced into the tissue bath. Contractile activity is measured for each compound or vehicle concentration during the last minute of a 30 minute challenge.
The isometric force developed by the bladder strips is measured using a […] to elicit 50% inhibition of pre-drug contractile activity (IC50 concentration) and is calculated from this concentration-response curve.

| SMILES | IC50 | inhibition at 30 µM | percent contraction at 30 µM |
| --- | --- | --- | --- |
| CCC(C)(C)Nc1c(NCc2c(Cl)cccc2Cl)c(=O)c1=O [Example 4, 3-(2,6-Dichloro-benzylamino)-4-(1,1-dimethyl-propylamino)-cyclobut-3-ene-1,2-dione] | 0.28 ± 0.03 µM |  |  |
| CCC(C)(C)Nc1c(NCc2cc(C)cc(C#N)c2)c(=O)c1=O [Example 7, 3-([2-(1,1-Dimethyl-propylamino)-3,4-dioxo-cyclobut-1-enylamino]-methyl)-5-methyl-benzonitrile] | 0.86 ± 0.27 µM |  |  |
| Cc1cc(C)c(CNc2c(NC(C)(C)C)c(=O)c2=O)c(C)c1 [Example 9, 3-tert-Butylamino-4-(2,4,6-trimethyl-benzylamino)-cyclobut-3-ene-1,2-dione] | 1.8 ± 0.7 µM |  |  |
| CC(C)(C)Nc1c(NCc2c(Cl)cccc2Cl)c(=O)c1=O [Example 10, 3-tert-Butylamino-4-(2,6-dichloro-benzylamino)-cyclobut-3-ene-1,2-dione] | 1.11 ± 0.41 µM |  |  |
| Cc1cc(C#N)cc(CNc2c(NC(C)C(C)(C)C)c(=O)c2=O)c1 (stereo not drawn) [Example 12, 3-{[3,4-Dioxo-2-(1,2,2-trimethyl-propylamino)-cyclobut-1-enylamino]-methyl}-5-methyl-benzonitrile] | 6.6 ± 1.6 µM | 37 ± 0.7% |  |
| CCC(CC)Nc1c(NCc2cc(C)cc(C#N)c2)c(=O)c1=O [Example 13, 3-{[2-(1-Ethyl-propylamino)-3,4-dioxo-cyclobut-1-enylamino]-methyl}-5-methyl-benzonitrile] |  | 19.1 ± 1.7% |  |
| CCC(CC)Nc1c(NCc2ccc(OC)c(OC)c2)c(=O)c1=O [Example 14, 3-(3,4-Dimethoxy-benzylamino)-4-(1-ethyl-propylamino)-cyclobut-3-ene-1,2-dione] |  | 27.2 ± 2.4% | 54% |
| COc1cc(OC)c(CNc2c(NC(C)(C)C)c(=O)c2=O)c(OC)c1 [Example 15, 3-tert-Butylamino-4-(2,4,6-trimethoxy-benzylamino)-cyclobut-3-ene-1,2-dione] | 11.1 ± 0.4 µM |  |  |
| Cc1cc(C#N)cc(CNc2c(NC(C)(C)C)c(=O)c2=O)c1 [Example 16, 3-[(2-tert-Butylamino-3,4-dioxo-cyclobut-1-enylamino)-methyl]-5-methyl-benzonitrile] | 2.9 ± 0.1 µM |  |  |
| COc1ccc(CNc2c(NC(C)(C)C)c(=O)c2=O)c(OC)c1 [Example 17, 3-tert-Butylamino-4-(2,4-dimethoxy-benzylamino)-cyclobut-3-ene-1,2-dione] | 9.6 ± 5.7 µM |  |  |
| CC(C)(C)Nc1c(NCc2ccc(F)cc2F)c(=O)c1=O [Example 18, 3-tert-Butylamino-4-(2,4-difluoro-benzylamino)-cyclobut-3-ene-1,2-dione] | 2.1 ± 0.9 µM |  |  |
| Cc1cccc(Cl)c1CNc1c(N[C@H](C)C(C)(C)C)c(=O)c1=O [Example 29, 3-(2-Chloro-6-methyl-benzylamino)-4-(1,2,2-trimethyl-propylamino)-cyclobut-3-ene-1,2-dione] |  | 38.6 ± 3.6% |  |
| Cc1cc(C)c(CNc2c(N[C@H](C)C(C)(C)C)c(=O)c2=O)c(Cl)c1 [Example 38, 3-(2-Chloro-4,6-dimethyl-benzylamino)-4-(1,2,2-trimethyl-propylamino)-cyclobut-3-ene-1,2-dione] |  |  | 200% |
| Cc1cc(C)c(CNc2c(NCC(F)(F)C(F)(F)F)c(=O)c2=O)c(Cl)c1 [Example 41, 3-(2-Chloro-4,6-dimethyl-benzylamino)-4-(2,2,3,3,3-pentafluoro-propylamino)-cyclobut-3-ene-1,2-dione] |  | 41 ± 2.9% |  |
| C[C@@H](Nc1c(NCc2ccc(C#N)c(Cl)c2)c(=O)c1=O)C(C)(C)C [Example 42, 2-Chloro-4-{[3,4-dioxo-2-(1,2,2-trimethyl-pronylamino)-cyclobut-1-enylamino]-methyl}-benzonitrile] | 4.7 ± 1.2 µM |  |  |

Now from value to molecule, other results behind:

| IC50 | SMILES | inhibition at 30 µM | percent contraction at 30 µM |
| --- | --- | --- | --- |
| 7.5 ± 4.5 µM | CC(C)(C)Nc1c(NCc2c(F)cccc2F)c(=O)c1=O [Example 19, 3-tert-Butylamino-4-(2,6-difluoro-benzylamino)-cyclobut-3-ene-1,2-dione] |  |  |
| 8.6 ± 3.5 µM | COc1cccc(CNc2c(NC(C)(C)C)c(=O)c2=O)c1OC [Example 20, 3-tert-Butylamino-4-(2,3-dimethoxy-benzylamino)-cyclobut-3-ene-1,2-dione] |  |  |
| 3.9 ± 1.1 µM | CC(C)(C)Nc1c(NCc2cc(F)ccc2F)c(=O)c1=O [Example 21, 3-tert-Butylamino-4-(2,5-difluoro-benzylamino)-cyclobut-3-ene-1,2-dione] |  |  |
| 25 ± 10 µM | COc1cc(CNc2c(NC(C)(C)C)c(=O)c2=O)cc(OC)c1 [Example 22, 3-tert-butylamino-4-(3,5-dimethoxy-benzylamino)-cyclobut-3-ene-1,2-dione] |  |  |
| 2.7 ± 0.3 µM | Cc1cccc(CNc2c(NC(C)(C)C)c(=O)c2=O)c1C [Example 23, 3-tert-Butylamino-4-(2,3-dimethyl-benzylamino)-cyclobut-3-ene-1,2-dione] |  |  |
| 27.1 ± 4 µM | CCCCNc1c(NCc2ccc(C#N)cc2CC)c(=O)c1=O [Example 24, 4-[(2-Butylamino-3,4-dioxo-cyclobut-1-enylamino)-methyl]-3-ethyl-benzonitrile] |  |  |
| 31 ± 4.5 µM | CCc1cc(C#N)ccc1CNc1c(NC(C)C)c(=O)c1=O [Example 25] |  |  |
| 5.2 ± 0.6 µM | CCc1cc(C#N)ccc1CNc1c(NC(CC)CC)c(=O)c1=O [Example 26] |  |  |
| 2 ± 0.2 µM | CCc1cc(C#N)ccc1CNc1c(N[C@H](C)C(C)(C)C)c(=O)c1=O [Example 28, 4-{[3,4-Dioxo-2-(1,2,2-trimethyl-propylamino)-cyclobut-1-enylamino]-methyl}-3-ethyl-benzonitrile] |  |  |
| 4.35 ± 4.1 µM | CCC(C)(C)Nc1c(NCc2c(C)cccc2Cl)c(=O)c1=O [Example 32, 3-(2-chloro-6-methyl-benzylamino)-4-(1,1-dimethyl-propylamino)-cyclobut-3-ene-1,2-dione] |  |  |
| 0.16 ± 0.01 µM | CCC(C)(C)Nc1c(NCc2c(C)cc(C#N)cc2Cl)c(=O)c1=O [Example 33, 3-Chloro-4-{[2-(1,1-dimethyl-propylamino)-3,4-dioxo-cyclobut-1-enylamino]-methyl}-5-methyl-benzonitrile] |  |  |
| 1.9 ± 1.1 µM | Cc1cc(C#N)cc(Cl)c1CNc1c(N[C@H](C)C(C)(C)C)c(=O)c1=O [Example 34, 3-Chloro-4-{[3,4-dioxo-2-(1,2,2-trimethyl-propylamino)-cyclobut-1-enylamino]-methyl}-5-methyl-benzonitrile] |  |  |
| 8.9 ± 3 µM | Cc1cc(Br)cc(C)c1CNc1c(N[C@H](C)C(C)(C)C)c(=O)c1=O [Example 35, 3-(4-Bromo-2,6-dimethyl-benzylamino)-4-(1,2,2-trimethyl-propylamino)-cyclobut-3-ene-1,2-dione] |  |  |
| 1.2 ± 1.1 µM | CCC(C)(C)Nc1c(NCc2c(C)cc(Br)cc2C)c(=O)c1=O [Example 37, 3-(4-Bromo-2,6-dimethyl-benzylamino)-4-(1,1-dimethyl-propylamino)-cyclobut-3-ene-1,2-dione] |  |  |
| 0.71 ± 0.5 µM | Cc1cc(C)c(CNc2c(NC(C)(C)C)c(=O)c2=O)c(Cl)c1 [Example 39, 3-tert-Butylamino-4-(2-chloro-4,6-dimethyl-benzylamino)-cyclobut-3-ene-1,2-dione] |  |  |
| 0.2 ± 0.08 µM | CCC(C)(C)Nc1c(NCc2c(C)cc(C)cc2Cl)c(=O)c1=O [Example 40, 3-(2-Chloro-4,6-dimethyl-benzylamino)-4-(1,1-dimethyl-propylamino)-cyclobut-3-ene-1,2-dione] |  |  |
